{"source": "patent US9051591B2", "about": "“Bacterium of enterobacteriaceae family producing L-aspartic acid or L-aspartic acid-derived metabolites and a method for producing L-aspartic acid or L-aspartic acid-derived metabolites” (AJINOMOTO CO., INC., priority 2010, dated 2015)", "key": {"[1]": {"target": "T1, purified ADH (Polaromonas sp.) (Polaromonas sp., UniProt Q126F5)", "T1 sequence (Q126F5 1-267)": "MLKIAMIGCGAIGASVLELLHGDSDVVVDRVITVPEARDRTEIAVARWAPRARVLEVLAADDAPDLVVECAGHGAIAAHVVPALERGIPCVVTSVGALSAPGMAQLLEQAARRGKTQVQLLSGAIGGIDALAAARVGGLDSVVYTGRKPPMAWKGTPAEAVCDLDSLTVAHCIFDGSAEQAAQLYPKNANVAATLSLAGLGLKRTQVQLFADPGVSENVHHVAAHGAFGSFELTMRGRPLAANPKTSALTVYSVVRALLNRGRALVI", "experiment": "Screening of alternative substrates for purified ADH", "settings": "10 mM, 29° C.; for ability to replace aspartic acid in reverse reaction: 1 mM NAD^+; for ability to replace oxaloacetate in forward reaction: […] NADH, 50 mM NH4Cl"}, "ADH (Polaromonas sp.)": {"target": "T2, ADH (Polaromonas sp.) (Polaromonas sp., UniProt Q126F5)", "T2 sequence (Q126F5 1-267)": "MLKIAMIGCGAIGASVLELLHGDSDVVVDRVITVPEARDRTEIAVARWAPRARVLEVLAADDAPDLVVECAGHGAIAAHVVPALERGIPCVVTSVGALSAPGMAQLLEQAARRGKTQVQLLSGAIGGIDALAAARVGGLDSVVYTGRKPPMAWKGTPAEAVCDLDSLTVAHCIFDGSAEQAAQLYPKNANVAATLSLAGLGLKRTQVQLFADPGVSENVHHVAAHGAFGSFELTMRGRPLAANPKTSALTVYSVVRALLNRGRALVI", "experiment": "Screening of substrate specificity, ADH", "settings": "20 mM substrate; for Deamination activity, ADH: relative to aspartate, 2 mM NAD^+, pH 9.8; for Amination activity, ADH: relative to oxaloacetate, […] NADH, pH 9"}, "ADH-Re": {"system": "ADH-Re", "experiment": "Screening of substrate specificity, ADH-Re", "settings": "20 mM substrate; for Deamination activity, ADH-Re: relative to aspartate, 2 mM NAD^+, pH 9.8; for Amination activity, ADH-Re: relative to oxaloacetate, […] NADH, pH 9"}, "ADH-Bj": {"system": "ADH-Bj", "experiment": "Screening of substrate specificity, ADH-Bj", "settings": "relative to aspartate; 20 mM substrate, 2 mM NADP^+, pH 9.8"}, "ADH1-Rp": {"system": "ADH1-Rp", "experiment": "Screening of substrate specificity, ADH1-Rp", "settings": "relative to aspartate; 20 mM substrate, 2 mM NADP^+, pH 9.8"}, "[2]": {"target": "T3, Polaromonas sp. aspartate dehydrogenase (Polaromonas sp., UniProt Q126F5)", "T3 sequence (Q126F5 1-267)": "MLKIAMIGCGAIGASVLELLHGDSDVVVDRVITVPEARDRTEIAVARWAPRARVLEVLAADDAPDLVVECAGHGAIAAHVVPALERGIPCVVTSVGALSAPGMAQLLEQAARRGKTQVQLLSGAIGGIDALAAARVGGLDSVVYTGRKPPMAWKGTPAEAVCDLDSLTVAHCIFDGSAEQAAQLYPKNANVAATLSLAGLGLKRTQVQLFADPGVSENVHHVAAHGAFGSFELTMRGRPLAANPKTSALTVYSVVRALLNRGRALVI", "experiment": "Regulatory properties of the ADH", "settings": "addition of 1 mM"}, "[3]": {"target": "Rhodopseudomonas palustris ADH1-Rp (Rhodopseudomonas palustris, UniProt Q2J3V1)", "sequence (Q2J3V1 entry or part of it)": "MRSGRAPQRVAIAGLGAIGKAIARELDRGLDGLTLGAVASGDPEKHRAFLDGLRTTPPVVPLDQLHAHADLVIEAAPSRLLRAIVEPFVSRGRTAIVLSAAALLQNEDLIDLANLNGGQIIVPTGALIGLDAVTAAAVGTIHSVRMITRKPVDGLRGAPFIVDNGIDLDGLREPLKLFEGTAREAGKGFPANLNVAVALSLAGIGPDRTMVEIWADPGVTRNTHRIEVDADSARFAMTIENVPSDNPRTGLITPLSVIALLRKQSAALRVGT", "experiment": "Kinetic parameters of the Rhodopseudomonas palustris AspDH 1", "settings": "Oxaloacetate reductive amination"}, "Polaromonas sp. ADH": {"target": "T4, Polaromonas sp. ADH (Polaromonas sp., UniProt Q126F5)", "T4 sequence (Q126F5 1-267)": "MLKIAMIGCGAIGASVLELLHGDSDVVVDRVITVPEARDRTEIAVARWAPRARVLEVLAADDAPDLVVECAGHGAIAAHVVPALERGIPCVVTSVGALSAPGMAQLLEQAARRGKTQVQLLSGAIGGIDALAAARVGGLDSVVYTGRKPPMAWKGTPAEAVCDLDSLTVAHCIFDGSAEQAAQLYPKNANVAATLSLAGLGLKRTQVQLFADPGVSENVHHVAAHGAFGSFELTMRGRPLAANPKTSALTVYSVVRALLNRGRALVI", "settings": "Oxaloacetate reductive amination; Michaelis-Menten plots"}, "[4]": {"target": "Bradyrhizobium japonicum ADH-Bj (Bradyrhizobium diazoefficiens, UniProt Q89FY1)", "sequence (Q89FY1 other isoform, or with tags, fused parts or gaps)": "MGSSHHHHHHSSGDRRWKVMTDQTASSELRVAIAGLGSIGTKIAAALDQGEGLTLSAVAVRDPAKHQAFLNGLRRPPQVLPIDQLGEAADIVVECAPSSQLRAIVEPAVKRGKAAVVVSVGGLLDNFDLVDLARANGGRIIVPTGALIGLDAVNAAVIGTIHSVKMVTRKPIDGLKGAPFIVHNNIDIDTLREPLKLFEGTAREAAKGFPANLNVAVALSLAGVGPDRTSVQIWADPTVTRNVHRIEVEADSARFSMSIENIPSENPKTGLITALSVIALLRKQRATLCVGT", "experiment": "Kinetic parameters of the Bradyrhizobium japonicum ADH-Bj", "settings": "Oxaloacetate reductive amination"}, "[5]": {"target": "T5, Ralstonia eutropha ADH-Re (Cupriavidus necator, UniProt Q0K391)", "T5 sequence (Q0K391 with tags, fused parts or gaps)": "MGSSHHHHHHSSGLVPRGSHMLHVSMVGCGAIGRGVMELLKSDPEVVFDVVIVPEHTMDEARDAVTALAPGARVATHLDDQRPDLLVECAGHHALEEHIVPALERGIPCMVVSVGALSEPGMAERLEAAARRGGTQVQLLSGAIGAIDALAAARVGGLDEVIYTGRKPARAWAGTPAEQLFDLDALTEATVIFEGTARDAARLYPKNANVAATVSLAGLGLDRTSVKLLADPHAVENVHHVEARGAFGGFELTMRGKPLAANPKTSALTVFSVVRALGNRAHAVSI", "settings": "Oxaloacetate reductive amination; Michaelis-Menten plots"}}, "note": "Several values for one entry are separate records, joined by “and”; a condition that tells them apart may be missing. Identical values can stand only once.", "data": [{"molecule": "CC[C@H](C)[C@H](N)C(=O)O", "note": "[isoleucine]", "values": [{"measurement": "ability to replace aspartic acid in reverse reaction", "setting": "[1]", "result": "No activity"}]}, {"molecule": "C[C@H](N)C(=O)O", "note": "[Alanine]", "values": [{"measurement": "Deamination activity, ADH", "setting": "ADH (Polaromonas sp.)", "result": "na (no activity (<2%))"}, {"measurement": "Deamination activity, ADH-Re", "setting": "ADH-Re", "result": "na (no activity (<2%))"}, {"measurement": "ability to replace aspartic acid in reverse reaction", "setting": "[1]", "result": "No activity"}, {"measurement": "Deamination activity, ADH-Bj", "setting": "ADH-Bj", "result": "na (no activity (<2%))"}, {"measurement": "Deamination activity, ADH1-Rp", "setting": "ADH1-Rp", "result": "na (no activity (<2%))"}]}, {"molecule": "CC(C)[C@H](N)C(=O)O", "note": "[valine]", "values": [{"measurement": "ability to replace aspartic acid in reverse reaction", "setting": "[1]", "result": "No activity"}]}, {"molecule": "O=C(O)CC(=O)C(=O)O", "note": "[Oxaloacetate]", "values": [{"measurement": "Amination activity, ADH", "setting": "ADH (Polaromonas sp.)", "result": "100 ± 3", "unit": "%"}]}, {"molecule": "Cl.N", "note": "[NH4Cl]", "values": [{"measurement": "inhibition of the reverse reaction of aspartic acid deamination", "setting": "[2]", "result": "did not significantly inhibit"}, {"measurement": "Km", "setting": "[3]", "result": "11 mM and 11.3 mM"}, {"measurement": "Vmax", "setting": "[3]", "result": "20.2 ± 0.6", "unit": "µmol/min/mg"}, {"measurement": "kcat", "setting": "[3]", "result": "10.3 ± 0.333", "unit": "s⁻¹"}, {"measurement": "Km", "setting": "Polaromonas sp. ADH", "result": 33, "unit": "mM"}, {"measurement": "Vmax", "setting": "Polaromonas sp. ADH", "result": "83 ± 3", "unit": "µmol/min/mg"}, {"measurement": "kcat", "setting": "Polaromonas sp. ADH", "result": "38 ± 1.33", "unit": "s⁻¹"}, {"measurement": "Km", "setting": "[4]", "result": "4.3 mM and 4 mM"}, {"measurement": "Vmax", "setting": "[4]", "result": "48 ± 2", "unit": "µmol/min/mg"}, {"measurement": "kcat", "setting": "[4]", "result": "24.67 ± 0.833", "unit": "s⁻¹"}, {"measurement": "Km", "setting": "[5]", "result": "12 mM and 11.9 mM"}, {"measurement": "Vmax", "setting": "[5]", "result": "113 ± 4", "unit": "µmol/min/mg"}, {"measurement": "kcat", "setting": "[5]", "result": "56.67 ± 2", "unit": "s⁻¹"}]}, {"molecule": "CC(=O)C(=O)O", "note": "[pyruvate]", "values": [{"measurement": "Amination activity, ADH", "setting": "ADH (Polaromonas sp.)", "result": "na (no activity (<0.2%))"}, {"measurement": "ability to replace oxaloacetate in forward reaction", "setting": "[1]", "result": "No activity"}]}, {"molecule": "NC(=O)C[C@H](N)C(=O)O", "note": "[asparagine]", "values": [{"measurement": "ability to replace aspartic acid in reverse reaction", "setting": "[1]", "result": "No activity"}]}, {"molecule": "CCC(N)C(=O)O", "note": "(stereo not drawn) [α-aminobutyrate]", "values": [{"measurement": "ability to replace aspartic acid in reverse reaction", "setting": "[1]", "result": "No activity"}]}, {"molecule": "CC(C)C(=O)C(=O)O", "note": "[ketoisovaleriate]", "values": [{"measurement": "Amination activity, ADH", "setting": "ADH (Polaromonas sp.)", "result": "na (no activity (<0.2%))"}, {"measurement": "Amination activity, ADH-Re", "setting": "ADH-Re", "result": "na (no activity (<0.2%))"}, {"measurement": "ability to replace oxaloacetate in forward reaction", "setting": "[1]", "result": "No activity"}]}, {"molecule": "N[C@@H](CCC(=O)O)C(=O)O", "note": "[Glutamate]", "values": [{"measurement": "effect on ADH activity in forward and reverse reactions", "setting": "[2]; 29° C., pH 9.8", "result": "not significantly affected"}, {"measurement": "Deamination activity, ADH", "setting": "ADH (Polaromonas sp.)", "result": "na (no activity (<2%))"}, {"measurement": "Deamination activity, ADH-Re", "setting": "ADH-Re", "result": "na (no activity (<2%))"}, {"measurement": "ability to replace aspartic acid in reverse reaction", "setting": "[1]", "result": "No activity"}, {"measurement": "Deamination activity, ADH-Bj", "setting": "ADH-Bj", "result": "5.5 ± 1.1", "unit": "%"}, {"measurement": "Deamination activity, ADH1-Rp", "setting": "ADH1-Rp", "result": "4.5 ± 0.4", "unit": "%"}]}, {"molecule": "O=C(O)CCC(=O)C(=O)O", "note": "[α-ketoglutarate]", "values": [{"measurement": "Amination activity, ADH-Re", "setting": "ADH-Re", "result": "na (no activity (<0.2%))"}]}]}
